# Results published in US5904857A, “4-alkyl and aryl semicarbazides as oxygen scavengers” (Nalco Chemical Company, priority 1997, dated 1999).
# Key:
# [1] = Oxygen scavenger screening: dissolved O2 in effluent water (apparatus of FIG. 1); settings: Equivalence Scavenger:O2 2:1, 250 ° F., feed pH 9.0-9.5
# Description: The apparatus of FIG. 1 was utilized to evaluate the efficiency of various oxygen scavengers. Reference is made to FIG. 1. The feedstream was ambient temperature (22° C.) air-saturated deionized water. Air-saturation of the feedwater was maintained with a continuous purge with CO2 -free air. The pH of the feedwater was adjusted to within the range of 9.0-9.5 with reagent grade sodium hydroxide. All wetted parts were constructed from 316 stainless steel. Syringe infusion pumps were used for injection of scavenger and catalyst. A metering pump pressurized the flow to 85 psig. The first heating bath heated the water stream to about 214° F. in about 30 seconds. The water residence time in the second bath was 4.5 minutes, and the effluent temperature was 251° F. The water stream was cooled slightly below ambient temperature within a few seconds, the pressure was released, and the oxygen concentration of the effluent water was continuously monitored utilizing an Orbisphere oxygen probe at the exit sample point.
# The data of Table 1 illustrate a remarkable reduction in dissolved O2 for the scavengers of this invention when utilized in conjunction with a catalyst in this temperature range.
# [2] = Long term stability: hydrazine concentrations in high amine formulations over weeks (procedure of Example 5); assay type: physicochemical
# Text: The procedure described in Example 5 was utilized to study long term stability. […] Thus, they are more advantageous than the conventional carbohydrazide treatment.
# [3] = Comparative stability study: hydrazine buildup in high amine formulations over days (p-dimethylaminobenzaldehyde method, ASTM D1385-78); assay type: physicochemical
# [4] = cited from earlier work
# [5] = cited from earlier work; remark: listed apart in the source
# [6] = catalyst none, None (untreated) 7800-8300
# [7] = 6% scavenger / 40% CHA (cyclohexylamine)
# [8] = 6% scavenger in 40% cyclohexylamine
structure (smiles),measurement,setting,value
"CCN(CC)C(=O)NN [4,4-diethylsemicarbazide, N,N-diethylsemicarbazide]",Dissolved O2,[1]; catalyst Co,6500 ppb
same,Dissolved O2,[1]; catalyst Cu,189 ppb
same,Dissolved O2,[1]; [6],7300 ppb
same,Hydrazine (ppm) at 0 weeks,[2]; [7],114 ppm
same,Hydrazine (ppm) at 5 weeks,[2]; [7],149 ppm
same,Hydrazine (ppm) at 8 weeks,"[2]; 6% scavenger / 40% CHA (cyclohexylamine), 8 weeks",178 ppm
"CC(C)NC(=O)NN [4-isopropylsemicarbazide, N-isopropyl semicarbazide]",Dissolved O2,[1]; catalyst Co,6500 ppb
same,Dissolved O2,[1]; catalyst Cu,98 ppb
same,Dissolved O2,[1]; [6],7500 ppb
NNC(=O)Nc1ccccc1 [4-phenyl semicarbazide],Dissolved O2,[1]; catalyst Co,4180 ppb
same,Dissolved O2,[1]; catalyst Cu,164 ppb
same,Dissolved O2,[1]; [6],7480 ppb
"NNC(=O)NN [CHz, carbohydrazide]",Hydrazine (ppm) at 0 days,[3]; [8],433 ppm
same,Hydrazine (ppm) at 3 days,[3]; [8],1420 ppm
same,Hydrazine (ppm) at 6 days,[3]; [8],2100 ppm
same,Hydrazine (ppm) at 0 days,[3]; 6% scavenger in 40% morpholine,94 ppm
same,Hydrazine (ppm) at 3 days,[3]; 6% scavenger in 40% morpholine,280 ppm
same,Hydrazine (ppm) at 6 days,[3]; 6% scavenger in 40% morpholine,465 ppm
same,Hydrazine (ppm) at 0 days,"[3]; 6% scavenger, no amine",54 ppm
same,Hydrazine (ppm) at 3 days,"[3]; 6% scavenger, no amine",56 ppm
same,Hydrazine (ppm) at 6 days,"[3]; 6% scavenger, no amine",59 ppm
same,Hydrazine (ppm) at 0 weeks,[2]; [7],433 ppm
same,Hydrazine (ppm) at 5 weeks,[2]; [7],6300 ppm
same,Hydrazine (ppm) at 0 weeks,[2]; 6% scavenger / 40% morpholine,94 ppm
same,Hydrazine (ppm) at 5 weeks,[2]; 6% scavenger / 40% morpholine,2016 ppm
"NN [Hydrazine, hydrazine]",Dissolved O2,[1]; catalyst Cu,241 ppb
same,Dissolved O2,[1]; [6],7500 ppb
same,absorption,[4]; Kirk-Othmer,"readily absorbed through the mouth, skin and respiratory system"
same,toxicity,[4]; Kirk-Othmer,highly toxic
same,corneal damage,[4]; contact with the eye,permanent corneal damage may result from contact with the eye
same,high dose effects,[4]; high doses,high doses may cause convulsions and other damaging side effects
same,low dose effects,[4]; low doses,Low doses may cause central nervous system depression
same,elimination of residual oxygen,[5]; Kirk-Othmer,efficiently eliminates the residual oxygen
same,metal passivation,[5]; adherent protective layer of magnetite over iron surfaces,good metal passivator
